Entries after “also recorded” stand apart in the source; their conditions may differ.
Assays:
[1] = molecular target: T1, PilACt (truncated PilA, residues 32–208) (Myxococcus xanthus, UniProt Q59589); test: Surface plasmon resonance (SPR, Biacore T200), carbohydrates over immobilized PilACt; type: binding; details: for Kd: KD (SPR, PilACt)
T1 construct: a truncated variant (PilACt) spanning residues 32–208; His tag; made in house; host or cells: E. coli BL21 (DE3)
Excerpt: We therefore employed surface plasmon resonance (SPR) on a Biacore system to quantitatively evaluate EPS-PilA binding ([48]), using immobilized PilACt as the ligand. […] Due to the insoluble nature of I-EPS and the risk of clogging the microfluidic channels, it was excluded from further SPR analyses.
(§1) ITC power compensation analyses ([50]) confirmed negligible enthalpy changes during titrations, ruling out nonspecific binding events (Fig. S3B and S4B). […] Given the presence of ManNAc in M. xanthus EPS, we further analyzed its deacetylated derivative, mannosamine (ManN).
The binding affinity of carbohydrates to PilACt and its mutants was determined by SPR measurements at 25°C using Biacore T200 (Cytiva, USA) in PBS buffer. The purified PilACt or its mutants (10 µg/mL in 10 mM sodium acetate, pH 4.5) were immobilized on the CM5 chips (Cytiva, USA) via amine coupling. Unreacted sites were blocked with 1.0 M ethanolamine-HCl (pH 8.5). Flow path 1 or path 3 was used as an activated blank control for subtraction. In all interaction experiments, analytes were injected at a flow rate of 30 µL/min for 180 s, with gradient concentrations programmed from low to high. After injection, dissociation was allowed to occur with the buffer flow for 300 s to facilitate chip regeneration. The resulting curves were corrected and fitted to the steady-state model using Biacore evaluation software (version 3.0, Cytiva, USA) to determine the dissociation constant (KD) values.

[2] = molecular target: T2, PilACt (Myxococcus xanthus, UniProt Q59589); test: Isothermal titration calorimetry (ITC), carbohydrates titrated into PilACt; type: binding
T2 construct: a truncated variant (PilACt) spanning residues 32–208; His tag; made in house; host or cells: E. coli BL21 (DE3)
Method: as §1
The calorimetric data for the binding of PilACt and its mutants to carbohydrates were measured at 25°C using a MicroCal PEAQ-ITC system (Malvern Instruments, United Kingdom). The carbohydrates, PilACt, and its mutants were dissolved in the PBS buffer. A 300 µL aliquot of protein solution was placed in the sample cell, followed by 19 sequential 2 µL injections of carbohydrates from a syringe stock solution into the sample cell. The injection interval was 150 s, and the agitation speed was set at 750 rpm. A control titration, in which carbohydrates were injected into PBS buffer under the same conditions, was performed to measure the heat of mixing and dilutions, which was then subtracted from the titration results involving the protein. Raw data were imported into MicroCal PEAQ-ITC analysis software (Version 1.1.01262) and corrected by subtracting the equivalent dilution heats of control titration. Integration of the area under each, along with deduction of the heat of dilution, yielded a thermogram of the molecular interaction between carbohydrates and PilACt or its mutants.

[3] = molecular target: T3, PilACt-W146A (Myxococcus xanthus, UniProt Q59589, W146A); test: SPR, carbohydrates over immobilized PilACt-W146A; type: binding; details: 25°C, PBS
T3 construct: a truncated variant (PilACt) spanning residues 32–208; His tag; made in house; host or cells: E. coli BL21 (DE3)
Excerpt: (§2) To functionally validate the role of W146, a W146A substitution mutant (PilA-W146A) was generated through AlphaFold2-based structural modeling of PilA (Fig. 4A). Structural alignment confirmed the mutant retained a tertiary structure indistinguishable from wild-type PilA (WT PilA; Fig. 4B), indicating the W146A substitution caused no global structural perturbations. […] However, the mutation induced localized instability, manifested by premature GlcN dissociation (4 ns) and excessive ligand RMSD fluctuations (>6 nm; Fig. 4C and D; Movie S4). […] To quantify binding effects, a single-residue PilACt variant (PilACt-W146A) was analyzed for EPS/GlcN affinity. […] To assess broader aromatic residue contributions, four additional PilA aromatic residues (Y69, W181, F164, and F186) were individually substituted with alanine. The PilACt-F164A mutant underwent intracellular degradation, likely due to structural instability, precluding heterologous expression.
The binding affinity of carbohydrates to PilACt and its mutants was determined by SPR measurements at 25°C using Biacore T200 (Cytiva, USA) in PBS buffer. The purified PilACt or its mutants (10 µg/mL in 10 mM sodium acetate, pH 4.5) were immobilized on the CM5 chips (Cytiva, USA) via amine coupling. Unreacted sites were blocked with 1.0 M ethanolamine-HCl (pH 8.5). Flow path 1 or path 3 was used as an activated blank control for subtraction. […]

[4] = molecular target: T4, PilACt-Y69A (Myxococcus xanthus, UniProt Q59589, Y69A); test: SPR, carbohydrates over immobilized PilACt-Y69A; type: binding
T4 construct: a truncated variant (PilACt) spanning residues 32–208; His tag; made in house; host or cells: E. coli BL21 (DE3)
Excerpt: as §2
(§3) The binding affinity of carbohydrates to PilACt and its mutants was determined by SPR measurements at 25°C using Biacore T200 (Cytiva, USA) in PBS buffer. […]
(§4) Fig S11. […] The binding affinity of single-residue variants PilACt-Y69A, PilACt-W181A, and PilACt-F186A to S-EPS (A) and GlcN (B) was evaluated by SPR analysis. Representative sensorgram and calculated KD values are shown. […]

[5] = molecular target: T5, PilACt-W181A (Myxococcus xanthus, UniProt Q59589, W181A); test: SPR, carbohydrates over immobilized PilACt-W181A; type: binding
T5 construct: a truncated variant (PilACt) spanning residues 32–208; His tag; made in house; host or cells: E. coli BL21 (DE3)
Excerpt: as §2, §3, §4

[6] = molecular target: T6, PilACt-F186A (Myxococcus xanthus, UniProt Q59589, F186A); test: SPR, carbohydrates over immobilized PilACt-F186A; type: binding
T6 construct: a truncated variant (PilACt) spanning residues 32–208; His tag; made in house; host or cells: E. coli (BL21 (DE3) is named only for the other PilACt variants)
Excerpt: as §2, §3, §4

[7] = Zeta potential measurement; type: physicochemical
Method: GlcN and PilACt were diluted in PBS buffer, and the solutions were adjusted to a suitable pH (6, 7.6, and 9) using either HCl or NaOH. The zeta (ζ) potential of GlcN (0.5 mg/mL) and PilACt (1 mg/mL) solutions was measured using UV-grade cuvettes with a Zetasizer NanoZS90 (Malvern Instruments, United Kingdom). For each measurement, 1 mL of the sample was injected into a folded capillary cell. All experiments were conducted in triplicate.

[8] = test system: M. xanthus DK1622 cells; parameters: method as in PMID 12704238; details: DK1622 cells ref 15; cited from earlier work
[9] = amine group of GlcN; no reference given; cited from earlier work

T1 sequence (Q59589 44-220): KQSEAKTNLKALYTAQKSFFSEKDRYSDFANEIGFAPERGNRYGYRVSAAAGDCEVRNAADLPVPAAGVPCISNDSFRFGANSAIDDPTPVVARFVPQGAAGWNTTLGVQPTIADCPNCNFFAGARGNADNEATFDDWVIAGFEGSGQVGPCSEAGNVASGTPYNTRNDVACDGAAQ
T2 sequence (Q59589 44-220): as above
T3 sequence (Q59589 44-220 W146A): as the sequence (Q59589 44-220) above, with W103A counted along it
T4 sequence (Q59589 44-220 Y69A): as the sequence (Q59589 44-220) above, with Y26A counted along it
T6 sequence (Q59589 44-220 F186A): as the sequence (Q59589 44-220) above, with F143A counted along it
T5 sequence (Q59589 44-220 W181A): as the sequence (Q59589 44-220) above, with W138A counted along it

Question: Which Kd ([1]; pH 9) does the source give for `N[C@H]1C(O)O[C@H](CO)[C@@H](O)[C@@H]1O` (stereo partly drawn) [GlcN, glucosamine] here?
Answer: 87 µM

Question: And the Kd ([1]; steady-state fit, 25°C, PBS buffer, pH 7.6)?
Answer: 203 µM

Question: What about the Kd [2] of the same molecule?
Answer: 300 µM

Question: And the “stoichiometry n (ITC)” value ([2]; 25°C, PBS, pH 7.6)?
Answer: 1.47

Question: And the “binding to PilACt-W146A by SPR” value [3]?
Answer: undetectable; also recorded: No binding

Question: And the “binding affinity relative to WT PilACt (SPR)” value [4]?
Answer: indistinguishable from WT

Question: And the “binding affinity relative to WT PilACt (SPR)” value [5]?
Answer: indistinguishable from WT

Question: And the “binding affinity relative to WT PilACt (SPR)” value [6]?
Answer: indistinguishable from WT

Question: And the zeta potential ([7]; pH 6, PBS)?
Answer: +2.43 mV

Question: And the zeta potential ([7]; pH 7.6, PBS)?
Answer: 1.09 mV

Question: What about the “piliation phenotype (surface pili)” value [8] of the same molecule?
Answer: hyperpiliation

Question: And the pKa [9]?
Answer: ~ 7.58

Question: With `CC(=O)N[C@@H]1[C@@H](O)[C@H](O)[C@@H](CO)O[C@H]1O` [GlcNAc, N-acetyl-glucosamine] as the molecule, how does the “binding to PilACt by SPR” value ([1]; tested concentrations 31.25–1,000 µM) read?
Answer: undetectable

Question: What about the “binding to PilACt by ITC” value ([2]; 25°C, PBS) of the same molecule?
Answer: undetectable

Question: What about the “piliation phenotype (surface pili)” value [8] of the same molecule?
Answer: hyperpiliation
